According to publication PMC11258351, “PK/PD investigation of antiviral host matriptase/TMPRSS2 inhibitors in cell models” (Scientific Reports, 2024):
“And” between values parts separate entries of the source, which are not always exact repeats. Equal values may be shown once. “Also recorded” adds a separate entry of the source. Read-outs that look alike come from different tables or passages of the source.

What was measured:
[1] = system: beagle dog CYP1A2; design: method as in PMID 35448654; conditions: cited from earlier work
[2] = biological target: T1, CYP2C9 (Homo sapiens, UniProt P11712); design: method as in PMID 34915414; conditions: earlier study; cited from earlier work
[3] = system: rat CYP1A2; design: method as in PMID 35448654; conditions: cited from earlier work
[4] = biological target: matriptase; design: method as in PMID 35635944; conditions: cited from earlier work
[5] = system: Calu-3 cells; design: method as in PMID 32703818; conditions: 50 μM; cited from earlier work
[6] = system: monkey CYP1A2; design: method as in PMID 35448654; conditions: cited from earlier work
[7] = biological target: T2, CYP2C19 (Homo sapiens, UniProt P33261); design: method as in PMID 34915414; conditions: earlier study; cited from earlier work
[8] = biological target: T3, CYP3A4 (Homo sapiens, UniProt P08684); design: method as in PMID 34915414; conditions: fluorometric assays, earlier study; cited from earlier work
[9] = system: cynomolgus monkey hepatocytes; design: method as in PMID 31391268; conditions: cited from earlier work
[10] = system: A/Hamburg/5/09 (H1N1pdm); format: cell-based, influenza A virus
[11] = system: H9N2; conditions: MDCK-II cells, 20 μM and 50 μM; cited from earlier work
[12] = biological target: T4, CYP2D6 (Homo sapiens, UniProt P10635); design: method as in PMID 34915414; conditions: earlier study; cited from earlier work
[13] = system: SARS-CoV-2; design: method as in PMID 32703818; conditions: Calu-3 cells, 50 μM, 24 h p.i.; cited from earlier work
[14] = system: human primary hepatocytes; assay: Depletion of inhibitors in human primary hepatocyte suspension (LC-MS/MS); conditions: for Parent compound retained at the 120-min sampling point / Sampling interval at which significant depletion was first observed: primary human hepatocytes, 10 µM; for Parent compound retained at the 120-min sampling point: % of 0-min concentration, mean ± S.E.M.; for Sampling interval at which significant depletion was first observed: sampling 0-120 min
[15] = as above; conditions: human, cryopreserved primary human hepatocytes in suspension; for CLint scaled at 10 µM: intrinsic clearance from primary human hepatocytes scaled to whole liver/body weight
[16] = system: primary human hepatocytes; assay: Cytotoxicity in primary human hepatocytes; format: cell-based; conditions: 50 µM, 24 h
Experimental: Supplementary Figure S1. Cytotoxicity of MI-463 and MI-1900 at 50 µM for 24 h in primary human hepatocytes. DMSO was applied as solvent control at 0.5% for 24 h.

[17] = system: H9N2 IAV strain A/quail/Shantou/782/00; format: cell-based, influenza A virus; conditions: MDCK-II cells, 24 h
[18] = biological target: TMPRSS2; design: method as in PMID 35635944; conditions: cited from earlier work
[19] = Prediction of in vivo human PK parameters from hepatocyte clearance; format: in vitro ADME; conditions: for Classification (extraction type) / Extraction ratio EH: predicted; for Predicted Cl, CLH: predicted from hepatocyte Clint, fu = 1
[20] = biological target: T5, CYP1A2 (Homo sapiens, UniProt P05177); design: method as in PMID 34915414; conditions: earlier study; cited from earlier work
T5 sequence (P05177 1-516): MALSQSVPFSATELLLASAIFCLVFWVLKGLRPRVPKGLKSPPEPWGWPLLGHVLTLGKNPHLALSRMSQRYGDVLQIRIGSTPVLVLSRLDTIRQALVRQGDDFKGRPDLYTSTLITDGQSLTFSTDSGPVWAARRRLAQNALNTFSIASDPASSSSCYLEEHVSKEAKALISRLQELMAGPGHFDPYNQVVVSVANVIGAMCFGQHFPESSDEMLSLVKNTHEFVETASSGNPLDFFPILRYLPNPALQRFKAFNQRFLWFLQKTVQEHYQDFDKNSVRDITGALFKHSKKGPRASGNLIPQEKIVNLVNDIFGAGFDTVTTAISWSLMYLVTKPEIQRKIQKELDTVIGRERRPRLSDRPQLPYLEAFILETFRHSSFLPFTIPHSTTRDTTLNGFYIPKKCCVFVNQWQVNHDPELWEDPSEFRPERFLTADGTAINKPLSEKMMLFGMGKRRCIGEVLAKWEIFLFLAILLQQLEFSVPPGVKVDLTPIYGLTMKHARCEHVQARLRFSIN

[21] = biological target: T1, CYP2C9; assay: Fluorometric CYP2C9 activity assay in human hepatic microsomes; conditions: human liver microsomes, protease inhibitors at 50 µM, 15 min 37 °C
[22] = biological target: T4, CYP2D6; assay: Fluorometric CYP2D6 activity assay in human hepatic microsomes; conditions: human liver microsomes; for Inhibition of CYP2D6 activity: protease inhibitors at 50 µM, 15 min 37 °C
[23] = biological target: T5, CYP1A2; assay: Fluorometric CYP1A2 activity assay in human hepatic microsomes; conditions: human liver microsomes, protease inhibitors at 50 µM, 15 min 37 °C
[24] = biological target: T2, CYP2C19; assay: Fluorometric CYP2C19 activity assay in human hepatic microsomes; conditions: human liver microsomes, protease inhibitors at 50 µM, 15 min 37 °C
[25] = biological target: T3, CYP3A4; assay: Fluorometric CYP3A4 activity assay in human hepatic microsomes; conditions: for Effect on CYP3A4 enzyme activity: human liver microsomes, 10, 25 and 50 µM; for Effect on CYP3A4 enzyme activity at the lowest applied concentration: human liver microsomes, lowest applied concentration (10 µM)
[26] = system: H9N2 IAV strain A/quail/Shantou/782/00; format: cell-based, influenza A virus; conditions: MDCK-II cells

T2 sequence (P33261 whole entry): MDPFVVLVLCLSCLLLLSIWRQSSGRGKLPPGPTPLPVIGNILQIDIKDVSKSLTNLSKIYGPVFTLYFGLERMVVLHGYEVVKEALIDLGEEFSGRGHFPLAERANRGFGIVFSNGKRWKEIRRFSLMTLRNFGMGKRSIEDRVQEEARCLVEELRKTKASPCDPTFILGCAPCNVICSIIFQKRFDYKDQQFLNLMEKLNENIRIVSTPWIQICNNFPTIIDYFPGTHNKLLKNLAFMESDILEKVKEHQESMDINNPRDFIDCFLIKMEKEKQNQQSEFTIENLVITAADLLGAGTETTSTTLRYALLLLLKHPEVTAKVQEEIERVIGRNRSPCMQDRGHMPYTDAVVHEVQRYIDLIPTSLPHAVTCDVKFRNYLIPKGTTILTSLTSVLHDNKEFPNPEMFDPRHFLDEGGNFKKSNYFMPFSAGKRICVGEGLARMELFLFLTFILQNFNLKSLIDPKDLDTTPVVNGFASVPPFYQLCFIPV
T1 sequence (P11712 whole entry): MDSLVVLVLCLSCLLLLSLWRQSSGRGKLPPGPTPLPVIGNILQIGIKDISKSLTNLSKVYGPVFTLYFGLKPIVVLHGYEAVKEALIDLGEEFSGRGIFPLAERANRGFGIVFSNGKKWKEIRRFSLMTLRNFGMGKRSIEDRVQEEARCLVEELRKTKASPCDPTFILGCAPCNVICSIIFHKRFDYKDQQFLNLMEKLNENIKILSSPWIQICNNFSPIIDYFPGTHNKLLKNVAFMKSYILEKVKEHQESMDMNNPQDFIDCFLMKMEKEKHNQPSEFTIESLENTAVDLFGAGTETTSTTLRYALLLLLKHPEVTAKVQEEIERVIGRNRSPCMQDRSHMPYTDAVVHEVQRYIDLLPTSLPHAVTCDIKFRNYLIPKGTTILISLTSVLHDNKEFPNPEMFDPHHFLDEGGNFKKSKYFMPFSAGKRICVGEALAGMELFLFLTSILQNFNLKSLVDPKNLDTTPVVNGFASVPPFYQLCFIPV
T4 sequence (P10635 whole entry): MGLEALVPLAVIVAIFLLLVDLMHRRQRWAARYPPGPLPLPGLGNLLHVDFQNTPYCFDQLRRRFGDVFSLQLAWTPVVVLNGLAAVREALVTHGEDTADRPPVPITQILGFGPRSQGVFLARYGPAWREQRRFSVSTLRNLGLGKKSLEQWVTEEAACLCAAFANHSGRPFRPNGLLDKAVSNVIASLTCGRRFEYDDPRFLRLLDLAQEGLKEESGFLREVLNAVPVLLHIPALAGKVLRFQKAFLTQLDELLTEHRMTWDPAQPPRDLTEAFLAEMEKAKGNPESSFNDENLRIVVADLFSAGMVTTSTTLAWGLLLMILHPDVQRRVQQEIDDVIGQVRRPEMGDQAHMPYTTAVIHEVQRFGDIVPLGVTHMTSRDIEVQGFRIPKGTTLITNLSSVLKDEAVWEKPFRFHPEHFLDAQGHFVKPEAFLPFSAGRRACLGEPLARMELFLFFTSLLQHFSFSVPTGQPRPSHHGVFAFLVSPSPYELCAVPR
T3 sequence (P08684 whole entry): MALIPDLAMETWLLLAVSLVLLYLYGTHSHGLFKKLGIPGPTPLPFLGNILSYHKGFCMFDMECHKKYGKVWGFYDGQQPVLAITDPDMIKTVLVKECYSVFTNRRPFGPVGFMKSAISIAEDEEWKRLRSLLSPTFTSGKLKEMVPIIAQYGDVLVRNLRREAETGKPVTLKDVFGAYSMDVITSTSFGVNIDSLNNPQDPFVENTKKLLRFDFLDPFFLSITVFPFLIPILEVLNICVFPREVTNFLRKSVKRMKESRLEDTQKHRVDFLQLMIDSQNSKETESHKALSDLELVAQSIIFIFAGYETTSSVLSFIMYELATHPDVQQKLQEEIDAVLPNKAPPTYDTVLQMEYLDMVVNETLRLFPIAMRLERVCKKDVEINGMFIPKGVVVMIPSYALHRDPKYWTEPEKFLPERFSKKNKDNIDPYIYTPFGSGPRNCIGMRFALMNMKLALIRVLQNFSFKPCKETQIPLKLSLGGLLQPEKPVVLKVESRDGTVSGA

SMILES	Inhibition of beagle dog CYP1A2 [1]	Inhibition of CYP2C9 activity [2]	Inhibition of rat CYP1A2 [3]	Ki [4] [nM]	Inhibition of monkey CYP1A2 [6]	Treatment time after which significant conversion was seen [9] [min]	Effect on H9N2 virus propagation [11]	Parent compound retained at the 120-min sampling point [14]	Sampling interval at which significant depletion was first observed [14] [min]	half-life at 10 µM [15] [h]	CLint scaled at 10 µM [15] [mL/min/kg]	H9N2 viral spread / formation of viral foci ([17]; MOI 0.01, 50 µM)	Classification (extraction type) [19]	Extraction ratio EH [19]	Predicted Cl, CLH [19]	Inhibition of CYP2C9 activity [21]	Inhibition of CYP2D6 activity [22]	Inhibition of CYP1A2 activity [23]	Inhibition of CYP2C19 activity [24]	Effect on CYP3A4 enzyme activity [25]	other results
COc1ccc(-c2cccc(S(=O)(=O)N[C@@H](Cc3cccc(C(=N)N)c3)C(=O)N3CCN(C(=O)NC4CCCCC4)CC3)c2)c(OC)c1 [MI-1900]	no significant inhibition	No significant CYP inhibitory potential	significant inhibition	38	significant inhibition	60 to 120	strongly inhibiting its replication	48.6 ± 1.5%	30	1.8	42.3	strong suppression of viral spread	Intermediate	0.45	9.23	–	–	–	–	–	Influence on Calu-3 cell viability [5]: without influencing Calu-3 cell viabilitiy significantly; Inhibition of CYP2C19 activity [7]: No significant CYP inhibitory potential; Inhibition of CYP3A4 activity [8]: substantial inhibitory effects; Reduction of H1N1 titers [10]: 1.62 logs; Inhibition of CYP2D6 activity [12]: No significant CYP inhibitory potential; Reduction of SARS-CoV-2 viral titers compared to control samples [13]: 35 to 280 fold; Cytotoxicity in primary human hepatocytes [16]: No significant differences in cell viabilities; also recorded: lack of cytotoxicity; Ki [18]: 79 nM; Inhibition of CYP1A2 activity [20]: No significant CYP inhibitory potential
COc1ccc(-c2cccc(S(=O)(=O)N[C@@H](Cc3cccc(C(=N)N)c3)C(=O)N3CCC(NC(=O)NC(C)(C)C)CC3)c2)c(OC)c1 [MI-485]	–	–	–	–	–	60 to 120	most pronounced reduction	64.9 ± 5.3%	30	2.86	26.6	–	Intermediate	0.39	8.17	No significant CYP inhibitory potential	No significant CYP inhibitory potential	No significant CYP inhibitory potential	No significant CYP inhibitory potential	significant inhibitory effect	Effect on CYP3A4 enzyme activity at the lowest applied concentration [25]: potent inhibitors
C=C[C@H]1C[N@@]2CC[C@H]1C[C@@H]2[C@@H](O)c1ccnc2ccc(OC)cc12 [quinidine, reference compound]	–	–	–	–	–	–	–	–	–	–	–	–	–	–	–	–	–	–	–	–	Inhibition of CYP2D6 activity by reference inhibitor ([22]; 3 µM, p < 0.001): significantly suppressed
CC(C)(C)NC(=O)NC1CCN(C(=O)[C@H](Cc2cccc(C(=N)N)c2)NS(=O)(=O)c2cccc(-c3ccc(CO)cc3)c2)CC1 [MI-1903]	–	–	–	–	–	–	–	38.6 ± 5.5%	30	0.753	101	only slightly reduced formation of viral foci	Intermediate	0.51	10.56	No significant CYP inhibitory potential	No significant CYP inhibitory potential	No significant CYP inhibitory potential	No significant CYP inhibitory potential	significant inhibitory effect	CLint ([14]; intrinsic clearance from primary human hepatocytes scaled to whole liver/body weight): 101.03 mL/min/kg
CC(C)(C)NC(=O)NC1CCN(C(=O)[C@H](Cc2cccc(C(=N)N)c2)NS(=O)(=O)c2cccc(-c3ccc(CO)c(F)c3)c2)CC1 [MI-1904]	–	–	–	–	–	–	most pronounced reduction	70.8 ± 8.6%	120	3.99	19.1	–	Intermediate	0.35	7.29	No significant CYP inhibitory potential	No significant CYP inhibitory potential	No significant CYP inhibitory potential	No significant CYP inhibitory potential	significant inhibitory effect	–
COc1ccc(-c2cccc(S(=O)(=O)N[C@@H](Cc3cccc(C(=N)N)c3)C(=O)N3CCC(NC(=O)NC4CCCCC4)CC3)c2)c(OC)c1 [MI-463]	no significant inhibition	No significant CYP inhibitory potential	significant inhibition	4	significant inhibition	60 to 120	–	66.7 ± 5.5% and 66.7%	30	3.57	21.3	fully prevented formation of viral foci; also recorded: fully preventing the formation of H9N2 viral foci	Intermediate	0.37	7.60	–	–	–	–	significant inhibitory effect	Reduction of H9N2 viral titers compared to untreated controls ([26]; 20 µM, 24 h): approximately 1.4 log; Reduction of H9N2 viral titers compared to untreated controls ([26]; 20 µM, 48 h): 2.1 logs; Reduction of H9N2 viral titers compared to untreated controls ([26]; 50 µM, 24 h): ~1.8 log; Reduction of H9N2 viral titers compared to untreated controls ([26]; 50 µM, 48 h): 2.6 logs; Inhibition of CYP2C19 activity [7]: No significant CYP inhibitory potential; Reduction of H1N1 viral titers [10]: 0.95–1.34 logs; Inhibition of CYP2D6 activity [12]: No significant CYP inhibitory potential; Cytotoxicity in primary human hepatocytes [16]: No significant differences in cell viabilities; also recorded: lack of cytotoxicity; H9N2 viral spread / formation of viral foci ([17]; MOI 0.01, 20 µM): marked reduction of viral spread; Effect on CYP3A4 enzyme activity at the lowest applied concentration [25]: potent inhibitors; Ki [18]: 3 nM; Inhibition of CYP1A2 activity [20]: No significant CYP inhibitory potential
